Assay results: patent US12441757B2, “Platform for screening NAD+ binding proteins in a cellular context” (OREGON HEALTH & SCIENCE UNIVERSITY, priority 2020, dated 2025)

Target: T1, PARP-10 (Homo sapiens, UniProt Q53GL7)
T1 construct: Full length His6-PARP-1 and His6-SUMO-PARP-10 proteins we expressed and purified; His6 (N); SUMO (N); made in house
T1 sequence (Q53GL7 1-1025): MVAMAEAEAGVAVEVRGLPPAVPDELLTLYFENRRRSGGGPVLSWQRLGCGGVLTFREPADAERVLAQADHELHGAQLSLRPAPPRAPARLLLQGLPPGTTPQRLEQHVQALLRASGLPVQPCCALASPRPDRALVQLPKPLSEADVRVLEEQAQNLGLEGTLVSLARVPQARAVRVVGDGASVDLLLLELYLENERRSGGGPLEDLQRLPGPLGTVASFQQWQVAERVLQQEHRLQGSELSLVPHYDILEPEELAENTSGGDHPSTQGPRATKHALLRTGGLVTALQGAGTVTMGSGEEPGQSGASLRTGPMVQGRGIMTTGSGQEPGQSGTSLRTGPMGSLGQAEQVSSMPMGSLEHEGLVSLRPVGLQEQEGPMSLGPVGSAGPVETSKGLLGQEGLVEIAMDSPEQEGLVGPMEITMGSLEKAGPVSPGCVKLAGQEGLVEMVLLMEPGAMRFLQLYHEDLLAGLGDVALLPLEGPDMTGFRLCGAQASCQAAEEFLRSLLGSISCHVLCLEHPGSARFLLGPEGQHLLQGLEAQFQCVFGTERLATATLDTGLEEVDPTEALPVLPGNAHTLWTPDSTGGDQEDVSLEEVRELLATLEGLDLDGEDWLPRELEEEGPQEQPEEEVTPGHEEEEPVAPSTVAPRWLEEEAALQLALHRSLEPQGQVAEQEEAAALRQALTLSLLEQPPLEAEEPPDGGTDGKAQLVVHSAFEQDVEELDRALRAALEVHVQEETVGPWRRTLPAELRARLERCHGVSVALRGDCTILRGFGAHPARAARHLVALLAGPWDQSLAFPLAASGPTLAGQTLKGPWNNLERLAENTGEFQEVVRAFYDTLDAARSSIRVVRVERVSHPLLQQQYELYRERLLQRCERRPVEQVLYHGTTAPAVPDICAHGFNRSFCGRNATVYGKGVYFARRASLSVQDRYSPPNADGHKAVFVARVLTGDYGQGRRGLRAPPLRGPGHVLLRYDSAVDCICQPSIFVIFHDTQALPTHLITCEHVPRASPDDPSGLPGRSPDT
Test: In vitro PARP-10 auto-MARylation activity assay
Format: biochemical
Procedure: FIG. 5. A clickable NAD^+ PAL probe (2-ad-BAD) inhibits PARP-1 and PARP-10 activity in concentration response. (FIG. 5A) 50 nM of recombinant His6-PARP-1 was incubated with 10 μg/mL activated DNA in 100 mM NaCl, 50 mM HEPES [pH 7.4], 4 mM MgCl2, 0.2 mM TCEP for 10 min, then treated with indicated competitor (BAD or the PARP-1 inhibitor NMS-P118) for additional 10 min. 50 μM NAD^+ was then added to initiate auto-PARylation of PARP-1. After 10 min, the reaction was quenched by addition of 4× Laemmli sample buffer and boiling at 95° C. for 5 min. Protein samples were separated by SDS-PAGE, transferred onto nitrocellulose and probed with indicated antibodies. (FIG. 5B) Experiments were performed essentially as in (5A) with the exception that damaged DNA was omitted and the PARP-10 inhibitor ITK6 was used instead of NMS-P118. (FIG. 5C) Densitometry analyses of (5A) and (5B) comparing inhibitory effect of BAD on PARP-1 and PARP-10 auto-ADP-ribosylation. Data are mean±SEM of 3 independent experiments. […]
Samples were run on 10% or 12% acrylamide gels for ˜1 h at 180 V in Mini-PROTEAN Tetra cell (Biorad). […] Band intensities we quantified with ImageJ.

relative potency against PARP-10 compared to PARP-1 (auto-ADP-ribosylation assays, densitometry): the opposite was true | inhibition of PARP-10 auto-MARylation (dose response, 50 μM NAD^+, anti-ADPr immunoblot): inhibited
Structure (SMILES): NC(=O)c1cccc([C@@H]2O[C@H](COP(=O)(O)OP(=O)(O)OC[C@H]3O[C@@H](n4cnc5c(N)ncnc54)[C@H](O)[C@@H]3O)[C@@H](O)[C@H]2O)c1 [BAD, benzamide adenine dinucleotide]
